Measurements from US10315990B2, “Isothiocyanate compounds and isothiocyanate XPO1 protein inhibitor drugs thereof” (DRIVINGFORCE THERAPEUTICS Co., Ltd., priority 2015, dated 2019).
Read-outs that look alike come from different tables or passages of the source.

Experiments:
TNF-α = assay: Serum TNF-α level of IBD animal model (ELISA); assay type: in vivo, SD rats; conditions: 80 mg/kg, three days after making the TNBS model
Text: (§1) Inflammatory bowel disease is an autoimmune disease. […] The therapeutic effect of the representative compound for the immune system disease or inflammation can be assessed by detecting change in levels of some important cytokines such as TNF-α and IL-6 at downstream of the signal path.

Jeko-1 = assay: Inhibitory activity for high metastasis type lymphoma cell line (MTT or CCK-8); assay type: cell-based; conditions: Homo sapiens
Experimental: (§2) Jeko-1, Raji and U2932 are three typical high metastasis type lymphoma cell lines. The lymphoma cell line was inoculated on 96-well cell culture plate in an amount of 6000 cells per well and cultured at 37° C. for 24 hours, and then treated solely with the compound added therein and cultured. Seventy-two hours later, MTT or CCK-8 method was used to detect the inhibitory activity of the compound for the two high metastasis type lymphoma cell lines.

U2932 = assay: as above; assay type: cell-based; conditions: Homo sapiens
Experimental: as §2

Raji = assay: as above; assay type: cell-based; conditions: Homo sapiens
Experimental: as §2

HMLE-Snail cell line = assay: Formation of HMLE-Snail cell line spheroids; assay type: cell-based; conditions: read-out: Colony (%): cell colony number of drug-treated group/cell colony number of control group × 100%
Experimental: HMLE-Snail cell line is one of most classic cell models for studying tumor cell metastasis and EMT path. HMLE-Snail cell line highly expresses Snail protein, and thus one of most remarkable features thereof is that it has spherical cellular morphology (spheroid). […] The HMLE-Snail cell line used in the present invention was donated by Dr. Robert Weinberg from America Massachusetts Whitehead Institute. HMLE-Snail cells were suspended in a liquid culture medium (in which B-27 and N-2 were added, purchased from America Invitrogen Corporation) containing DMEM/F12 in a ratio of 1:1, in an amount of 1.0×10^3 cells/ml, and cultured in an ultra low attachment culture plate so as to allow spheroids to be formed. Seven days later, spheroids were collected by centrifugation, and counted. […] Docetaxel is a common clinical chemotherapy drug.

SW620 = assay: Inhibitory activity for high metastasis type colon cancer cell line (MTT or CCK-8); assay type: cell-based; conditions: Homo sapiens
Experimental: as §2, with “SW620” for “Jeko-1, Raji”, “HCT116” for “U2932”, “two” for “three”, “colon cancer” for “lymphoma”

HCT116 = assay: as above; assay type: cell-based; conditions: Homo sapiens
Experimental: as §2, with “SW620” for “Jeko-1, Raji”, “HCT116” for “U2932”, “two” for “three”, “colon cancer” for “lymphoma”

[1] = test system: SK-OV3 (high metastasis type ovarian cancer cell line); assay: Ovarian cancer intraperitoneal metastasis animal model; assay type: in vivo, nudemice (BALB/c-nu/nu); conditions: Mus musculus, SK-OV-3, ip; for response vs control in vivo at 80 mg/kg: 504 h, read-out: T/C (%); for mortality at 80 mg/kg: 720 h, six mice per group, read-out: Mortality (within 30 days) (converted)
Experimental: The ovarian cancer intraperitoneal metastasis animal model is one of most classic animal models for studying anti-ovarian cancer metastasis drug. Sixty 5 to 6-week-old female nudemice with similar weight (BALB/c-nu/nu) were chosen. SK-OV3 (high metastasis type ovarian cancer cell line) stably expressing green fluorescence protein was screened, and prepared into a cell suspension of 2×10^6 cells/100 μl with serum-free PRMI1640 medium. […] Three weeks later, the cancer was detected with a small animal in vivo imaging apparatus (Xenogen, School of Medicine, Shanghai Jiaotong University) and photos thereof were taken. […] In the table, T represents the drug-treated group, and C represents the blank control group. T/C is (V/V0 of compound-treated group)/(V/V0 of blank control group) in which V represents the cancer volume of mouse on the day the detection was performed, and V0 represents the cancer volume of mouse on the day the administration begun.

IL-6 = assay: Serum IL-6 level of IBD animal model (ELISA); assay type: in vivo, SD rats; conditions: 80 mg/kg, three days after making the TNBS model
Text: as §1

XPO1 protein = target: T1, XPO1 protein (Homo sapiens, UniProt O14980); assay: Inhibitory activity for XPO1 protein (NES-GFP nuclear export, laser confocal microscope); assay type: cell-based; conditions: NES-GFP nuclear export, cells treated for 2 hours
T1 construct: Sixteen hours later, NES-GFP plasmid was transfected with liposome; endogenous in cells
Text: NES (nuclear export signal) is a nuclear export signal peptide recognized by XPO1 protein. XPO1 recognizes NES sequence peptide segment of biomacromolecule and exports the biomacromolecule out of nucleus. NES-GFP protein is obtained by co-expressing green fluorescence protein GFP and NES sequence peptide segment by using a eukaryotic expression plasmid. Inhibitory activity of the representative compound for XPO1 protein can be assessed by detecting influence of the compound on NES-GFP cell localization.
The cells were digested with trypsin, counted, and inoculated on 96-well plate in an amount of 1.5×10^4 cells per well. Sixteen hours later, NES-GFP plasmid was transfected with liposome.

NCI-H1650 = assay: cells; assay type: cell-based; conditions: Homo sapiens
Experimental: (§3) NCI-H1975 and NCI-H1650 are two typical high metastasis type lung cancer cell lines. The therapeutic effect of the representative compound for the metastasis type lung cancers can be preliminarily assessed by detecting the inhibitory activity of the representative compound for the two cell lines. The lung cancer cell line was inoculated on 96-well cell culture plate in an amount of 6000 cells per well and cultured at 37° C. for 24 hours, and then treated solely with the compound added therein and cultured. Seventy-two hours later, MTT or CCK-8 method was used to detect the inhibitory activity of the compound for the two lung cancer cell lines.

NCI-H1975 = assay: cells; assay type: cell-based; conditions: Homo sapiens
Experimental: as §3

IBD animal model = assay: Macroscopic pathological changes of IBD animal model (enteroclysis with TNBS); assay type: in vivo, SD rats; conditions: 80 mg/kg intragastrically daily, TNBS rats, score 0-5, 10 animals
Experimental: Eight-week-old male SD rats (10 rats per group) were fasted for 24 hours and anaesthetized with diethyl ether. 50% ethanol and TNBS (2,4,6-trinitrobenzenesulfonic acid) were mixed to prepare a solution. In the IBD model group, a tube made of vinyl resin was inserted 5 cm from anus, and enteroclysis was performed with the TNBS solution in a dose of 100 mg/kg. The rats were hung upside down 30 seconds later after the enteroclysis to ensure no leakage of the TNBS solution. In the control group, the TNBS solution was replaced with normal saline with which enteroclysis was performed. Seven days later after the enteroclysis with the TNBS solution or normal saline, animals were sacrificed and dissected. […] Two weeks later after treated with the drugs, the animals were sacrificed and dissected, and large intestine thereof was taken out and fixed in 4% formalin solution for 30 minutes. The large intestine of the animals was cut lengthwise from the mesentery side to take photos for rectum portion and measure the weight of rectum. Based on the macroscopic observation and judgment score (Table 2-1), ulceration and bleeding states of rectum portion were scored according to the macroscopic observation scoring standard.

A2780 = assay: Inhibitory activity for high metastasis type ovarian cancer cell line (MTT or CCK-8); assay type: cell-based; conditions: Homo sapiens; A2780, 72 hours; read-out: IC50
Experimental: (§4) The two cell lines were inoculated on 96-well cell culture plate in an amount of 6000 cells per well and cultured at 37° C. for 24 hours, and then treated solely with the representative compound added therein and cultured. Seventy-two hours later, MTT or CCK-8 method was used to detect the inhibitory activity of the representative compound for the high metastasis type ovarian cancer cell lines.

HO-8910 = assay: as above; assay type: cell-based; conditions: HO-8910, 72 hours; read-out: IC50
Experimental: as §4

[2] = Jeko-1, 72 hours, read-out: IC50
[3] = U2932, 72 hours, read-out: IC50
[4] = 10 μg/ml, treated for 24 hours, control = 100
[5] = SW-620, SW620, 72 hours, read-out: IC50
[6] = HCT-116, HCT116, 72 hours, read-out: IC50
[7] = 80 mg/kg intraperitoneal injection once a day for 3 weeks
[8] = NCI-H1650, 72 hours, read-out: IC50
[9] = NCI-H1975, 72 hours, read-out: IC50

T1 sequence (O14980 whole entry, species assumed): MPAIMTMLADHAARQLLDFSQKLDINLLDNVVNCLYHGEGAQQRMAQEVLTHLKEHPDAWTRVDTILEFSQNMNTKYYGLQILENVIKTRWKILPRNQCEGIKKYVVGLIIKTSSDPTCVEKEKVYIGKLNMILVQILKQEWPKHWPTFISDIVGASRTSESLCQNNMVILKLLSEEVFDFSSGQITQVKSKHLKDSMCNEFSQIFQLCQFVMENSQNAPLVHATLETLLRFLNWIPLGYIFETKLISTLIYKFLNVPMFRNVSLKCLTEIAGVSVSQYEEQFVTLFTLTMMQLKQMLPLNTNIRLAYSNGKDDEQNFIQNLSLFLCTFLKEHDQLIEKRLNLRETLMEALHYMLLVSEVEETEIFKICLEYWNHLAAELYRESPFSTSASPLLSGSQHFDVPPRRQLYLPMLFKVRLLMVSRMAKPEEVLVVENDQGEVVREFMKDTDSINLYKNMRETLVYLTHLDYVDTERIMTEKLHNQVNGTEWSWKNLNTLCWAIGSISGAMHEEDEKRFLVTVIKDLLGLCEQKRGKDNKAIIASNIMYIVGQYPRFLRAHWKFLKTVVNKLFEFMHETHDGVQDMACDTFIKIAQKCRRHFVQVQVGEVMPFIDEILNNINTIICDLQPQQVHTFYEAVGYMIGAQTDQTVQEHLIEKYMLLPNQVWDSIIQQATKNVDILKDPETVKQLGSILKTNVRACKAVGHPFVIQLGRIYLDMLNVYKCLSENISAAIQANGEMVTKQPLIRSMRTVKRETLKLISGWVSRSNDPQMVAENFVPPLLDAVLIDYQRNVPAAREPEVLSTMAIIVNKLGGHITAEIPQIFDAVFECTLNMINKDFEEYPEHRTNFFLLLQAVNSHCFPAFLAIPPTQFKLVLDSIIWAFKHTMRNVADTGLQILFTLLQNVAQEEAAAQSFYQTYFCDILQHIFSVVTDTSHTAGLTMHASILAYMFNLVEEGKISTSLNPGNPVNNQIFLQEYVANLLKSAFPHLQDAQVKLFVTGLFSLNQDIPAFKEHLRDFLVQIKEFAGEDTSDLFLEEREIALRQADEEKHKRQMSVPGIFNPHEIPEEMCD

| Compound | Serum TNF-α level, Animal-1 (TNF-α) [ng/mL] | Serum TNF-α level, Animal-2 (TNF-α) [ng/mL] | Serum TNF-α level, Animal-3 (TNF-α) [ng/mL] | IC50 (Jeko-1; [2]) [nM] | IC50 (U2932; [3]) [nM] | IC50 (Raji; 72 hours, read-out: IC50) [nM] | activity at 10 µg/mL (HMLE-Snail cell line; [4]) [%] | IC50 (SW620; [5]) [µM] | IC50 (HCT116; [6]) [nM] | response vs control in vivo at 80 mg/kg [1, 7] [%] | mortality at 80 mg/kg [1] [%] | Serum IL-6 level, Animal-1 (IL-6) [ng/mL] | Serum IL-6 level, Animal-2 (IL-6) [ng/mL] | Serum IL-6 level, Animal-3 (IL-6) [ng/mL] | Activity (μM): inhibitory activity for XPO1 protein (full inhibitory concentration) (XPO1 protein) [µM] | IC50 (NCI-H1650; [8]) [µM] | IC50 (NCI-H1975; [9]) [µM] | Macroscopic pathological score (IBD animal model) | further results |
| --- | --- | --- | --- | --- | --- | --- | --- | --- | --- | --- | --- | --- | --- | --- | --- | --- | --- | --- | --- |
| CCC[S+]([O-])/C=C/CCN=C=S (stereo not shown) [Compound F-01, reference compound] | 2.0 | 1.7 | 1.9 | 3500 | 5200 | 3700 | 60 to 65 | 4.1 | 3500 | 37 | 0 | 1.8 | 1.9 | 2.0 | 10 to 15 | 5.4 | 6.9 | – | – |
| [O-][S+](/C=C/CCN=C=S)C1CC1 (stereo not shown) [Compound F-03, reference compound] | 1.7 | 1.6 | 1.5 | 3100 | 4900 | 3200 | 55 to 60 | 3.3 | 2900 | 35 | 0 | 1.7 | 1.8 | 1.8 | 5 to 10 | 4.9 | 5.8 | 2.5 ± 0.6 | – |
| CS/C=C/CCN=C=S [Compound F-06, reference compound] | 2.3 | 2.0 | 2.2 | 12000 | 14700 | 13500 | 70 to 75 | 17.8 | 15600 | 80 | 16.7 | 2.8 | 2.5 | 2.3 | 15 to 20 | 16.3 | 17.2 | 3.5 ± 0.2 | – |
| [O-][S+](/C=C/CCN=C=S)c1cc(C(F)(F)F)cc(C(F)(F)F)c1 (stereo not shown) [Compound I-04] | – | – | – | – | – | – | – | – | – | – | 0 | – | – | – | 0.250 | – | – | 1.0 ± 0.5 | IC50 (Jeko-1; JeKo-1, 72 h): 50 nM; IC50 (U2932; U2932, 72 h): 90 nM; IC50 (Raji; 72 h): 60 nM; activity at 10 µg/mL (HMLE-Snail cell line; 24 h): 10 to 15%; IC50 (SW620; SW-620, 72 h): 0.09 µM; IC50 (HCT116; HCT-116, 72 h): 70 nM; response vs control in vivo at 80 mg/kg [1]: 19%; IC50 (NCI-H1650; NCI-H1650, 72 h): 0.08 µM; IC50 (NCI-H1975; NCI-H1975, 72 h): 0.09 µM |
| COc1cc([S+]([O-])/C=C/CCN=C=S)cc(OC)c1OC (stereo not shown) [Compound I-06] | 0.9 | 0.6 | 0.5 | 70 | 170 | 100 | 10 to 15 | 0.15 | 100 | – | – | 0.7 | 0.5 | 0.3 | 0.200 | – | – | 1.0 ± 0.1 | – |
| [O-][S+](/C=C/CCN=C=S)c1nnnn1-c1ccccc1 (stereo not shown) [Compound I-25] | 1.0 | 0.5 | 0.8 | 150 | 250 | 180 | 10 to 15 | – | – | – | – | 0.6 | 0.7 | 0.5 | – | 0.22 | 0.25 | 1.5 ± 0.3 | IC50 (A2780): 700 nM; IC50 (HO-8910): 300 nM |
| [O-][S+](/C=C/CCN=C=S)c1ccc(Oc2ccccc2)cc1 (stereo not shown) [Compound I-27] | – | – | – | – | – | – | 25 to 30 | – | – | 25 | 0 | – | – | – | 0.5 to 1 | – | – | – | IC50 (A2780): 1200 nM; IC50 (HO-8910): 800 nM |
